# US10828301B2, “2,4-pyrimidinediamine compounds and their uses” (Rigel Pharmaceuticals, Inc, priority 2002, dated 2020)
# Experiments:
# [1] = system: proteins downstream of Syk kinase in activated BMMC cells; test: Phosphorylation of proteins in the IgE receptor signal transduction cascade in activated BMMC cells; type: cell-based, mouse; conditions: varying concentrations, FIG. 7
# [2] = Sheep model of allergic asthma (Ascaris suum challenge); type: in vivo; conditions: administered in an aqueous suspension
# Experimental: Sheep develop bronchoconstriction within minutes of exposure to inhaled antigen (Ascaris suum), with maximal airflow obstruction during the early allergic response (EAR). Release of preformed mast cell mediators is likely responsible for this early phase of airflow obstruction. […] In the sheep, AHR develops a few hours following antigen challenge, and can persist for up to 2 weeks.
# In the sheep model of allergic asthma, sheep are administered aerosols of test article via an endotracheal tube, followed by an aerosol challenge with antigen extracted from the roundworm, Ascaris suum, to which the sheep are naturally allergic. Allergen challenge leads to direct bronchoconstriction (both EAR and LAR) and a persistent non-specific AHR. These three characteristics are similar to those seen in human allergic asthmatics. The activity of the test agent is determined by changes in the lung resistance (RL), which is calculated from measurements of transpulmonary pressure, flow, and respiratory volume. […] The LAR is a less pronounced increase in RL, which starts approximately 5-6 hours following allergen challenge and is resolved by 8 hours post-challenge. Twenty-four hours after the challenge, a dose response to carbachol is measured to determine the AHR, which is expressed as the dose of carbachol required to increase RL by 400% over baseline. […]
smiles,measurement,setting,value
"Oc1cccc(Nc2ncc(F)c(Nc3cccc(O)c3)n2)c1 [Compound R921218, N2,N4-Bis(3-hydroxyphenyl)-5-fluoro-2,4-pyrimidinediamine]",phosphorylation of various proteins downstream of Syk kinase in the IgE receptor signal transduction cascade,[1],inhibit phosphorylation
same,effect on the EAR (in words),[2],failed to inhibit the EAR
